We go through one molecule from patent publication US20030220211A1, “Methods, compositions, and articles for control of malodor produced by urea-containing body fluids” (The Procter & Gamble Company, priority 2000, published 2003).

Test [1] deals with T1, Urease (Type III from jack beans) (Canavalia ensiformis, UniProt P07374).
T1 construct: purchased Sigma U-1500
In words: Ammonia odor detection on paper towel sheets treated with urea and urease solution. It counts as biochemical. As to conditions: paper towel sheet, 15 drops CuHEDTA Test Solution (urea 2M/tris + Cu/HEDTA complex solution 125 mM) + 2 drops urease solution; after 30 minutes at room temperature; smell. How it is done:
In such a test, conventional paper towel sheets are treated with both a urea solution and a urease solution. One such sheet serves as a reference sheet; another such sheet is treated with a urease solution which also contains a complex of copper chelated with N-(2-hydroxyethyl)ethylenediamine triacetic acid. After 30 minutes at room temperature, the sheets are evaluated for detectable ammonia order.
Dissolve 2.42 g of trizma-base in about 80 mL H2O deionized, adjust the pH to 7.5 with HCL 1M, bring to 100 mL with H2O deionized.
Dissolve 6 g of Urea in 50 mL of this buffer 0.2M, pH 7.5
Dissolve 2.13 g of CuCl in 50 mL of H2O deionized.
Dissolve 2.15 g of HEDTA in 25 mL of H2O deionized
Cu/HEDTA complex solution (125 mM)
Mix 25 ml of CuCl2 solution (250 mM) with 25 mL HEDTA solution (250 mM)at adjusted with NaOH to pH around 7
Urease solution (10 mg/mL)
Weigh 0.020 g of urease and add 3 mL of tris buffer pH 7.5, 0.2M. This solution is stable for about 1 week provided it is stored at 4° C. in a refrigerator.
10 mL urea 2M/tris+500 mL of H2O deionized buffer.
10 mL Urea 2M/tris+500 mL Cu/TED complex solution buffer (125 mM)
Half of a white BOUNTY™® towel sheet is put in each of two Petri dishes. Into one dish, 15 drops of the reference solution are poured evenly so that the center of the towel sheet is evenly wet. […]

Test [2] concerns urine malodor. The note with it: 5 mMol/liter solution, 250 ml sprayed once per day for 11 days over 4 m^2 (105 mg/m^2).
Procedure: A liquid product for treating hard surfaces is prepared and tested by spraying the product on walls, floors and other surfaces surrounding the urinals in a public men's restroom. Product preparation, use and test results are as follows:
A 5 mMol/liter solution of CuHEDTA is prepared from:
1721 mg of HEDTA (trisodium salt hydrate, MW=344.21);
1250 mg of CuSO4 (pentahydrate, MW=250);
1000 ml of deionized water.
Using a spray-gun, 250 ml of this solution is sprayed once per day for 11 days over a 4 m^2 area surrounding the urinals in a public men's restroom.

T1 sequence (P07374 whole entry, looked up): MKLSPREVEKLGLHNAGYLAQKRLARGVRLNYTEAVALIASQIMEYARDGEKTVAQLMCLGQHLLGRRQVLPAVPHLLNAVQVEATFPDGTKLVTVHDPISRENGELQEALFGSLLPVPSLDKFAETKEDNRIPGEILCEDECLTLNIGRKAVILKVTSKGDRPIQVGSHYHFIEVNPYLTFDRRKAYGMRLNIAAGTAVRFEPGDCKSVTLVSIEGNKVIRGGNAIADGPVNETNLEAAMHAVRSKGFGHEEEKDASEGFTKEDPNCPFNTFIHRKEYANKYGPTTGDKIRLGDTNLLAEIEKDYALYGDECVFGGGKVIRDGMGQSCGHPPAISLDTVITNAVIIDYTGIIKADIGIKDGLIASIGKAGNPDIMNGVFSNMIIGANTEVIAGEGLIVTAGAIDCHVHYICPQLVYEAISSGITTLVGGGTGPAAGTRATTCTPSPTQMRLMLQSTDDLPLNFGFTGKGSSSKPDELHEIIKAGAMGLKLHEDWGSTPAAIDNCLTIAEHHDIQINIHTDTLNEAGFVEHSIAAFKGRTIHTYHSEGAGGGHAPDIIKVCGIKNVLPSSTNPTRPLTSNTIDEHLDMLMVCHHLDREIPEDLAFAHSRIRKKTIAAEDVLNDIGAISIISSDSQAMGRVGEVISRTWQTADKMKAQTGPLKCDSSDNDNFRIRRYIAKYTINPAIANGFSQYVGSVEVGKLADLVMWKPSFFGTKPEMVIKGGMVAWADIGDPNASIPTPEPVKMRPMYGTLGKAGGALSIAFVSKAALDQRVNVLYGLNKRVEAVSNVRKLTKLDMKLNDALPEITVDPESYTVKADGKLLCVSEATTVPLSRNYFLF

For the molecule `O=C([O-])CN(CCN(CCO)CC(=O)O)CC(=O)[O-].[Cu+2]` [CuHEDTA, copper salt of N-hydroxyethyl-ethylenediamine-triacetic acid], in test [1], the detectable ammonia odor result is “No ammonia odor is detectable”. Also, the “urine malodor control in the men's restroom” value in test [2] is on record as “effectively controlled for the full 11 day period”.
